Some results are limits rather than exact numbers.

Holding throughout (format): biochemical
In one assay the target is rat cathepsin B (Rattus norvegicus, UniProt P00787). Description: In vitro assay for inhibition of cathepsin B. As to conditions: r rat cathepsin B, substrate N-CBZ-Phe-Arg-AMC, pH 5.1, 10 min incubation at room temperature. As to the method: In Vitro Assay Procedure for Cathepsin B
The compounds of formula I were tested for inhibition of cathepsin B using the known method (A. J. Barret et al., Biochem. J. 1982, 201, 189-198). To a 170 μl of enzyme-buffer mixture (enzyme: r rat cathepsin B, diluted to give approximate 10 F units/min, buffer: 56 mM sodium acetate, 1.124 mM EDTA, 10 mM DTT, pH 5.1) a 10 μL of inhibitor (dissolved in DMSO) was added. After 10 min of incubation at room temperature, a 20 μl of 5 mM substrate (N-CBZ-Phe-Arg-AMC, dissolved in DMSO) was added to initiate reaction. Reading is followed up for 10 min at the fluoroscan reader (excitation at 380 nm emission at 460 nm).
(§1) A plot of percentage of inhibition vs inhibitor concentration is obtained, and IC50 is determined using a linear regression calculations (concentration of inhibitor which will give 50% inhibition).

In another assay the target is rat cathepsin L (Rattus norvegicus, UniProt P07154). Description: In vitro assay for inhibition of cathepsin L. The following applies: r rat cathepsin L, substrate N-CBZ-Phe-Arg-AMC, pH 5.0, 10 min incubation at room temperature. As to the method: In Vitro Assay Procedure for Cathepsin L
To a 170 μl of enzyme-buffer mixture (enzyme: r rat cathepsin L, diluted to give approximate 15 F units/min, buffer: 58.8 mM sodium citrate, 1.18 mM EDTA, 235 mM sodium chloride, 5 mM […], pH 5.0) a 10 μL of inhibitor (dissolved in DMSO) was added. After 10 min of incubation at room temperature, a 20 μl of 1 mM substrate (N-CBZ-Phe-Arg-AMC, dissolved in DMSO) was added to initiate reaction. Reading is followed up for 10 min at the fluoroscan reader (excitation at 380 nm emission at 460 nm).
as §1

The target of the next assay is T1, cathepsin K (Homo sapiens, UniProt P43235).
T1 sequence (P43235 115-329): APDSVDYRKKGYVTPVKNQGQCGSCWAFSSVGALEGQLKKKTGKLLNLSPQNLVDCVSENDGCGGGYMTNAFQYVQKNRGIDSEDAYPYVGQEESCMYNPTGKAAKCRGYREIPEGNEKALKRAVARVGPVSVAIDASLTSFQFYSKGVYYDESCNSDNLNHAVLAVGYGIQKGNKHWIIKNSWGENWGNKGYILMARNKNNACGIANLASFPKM
The assay is described as follows: In vitro assay for inhibition of cathepsin K. As to conditions: r cathepsin K, substrate N-CBZ-Phe-Arg-AMC, pH 5.5, 10 min incubation at room temperature. As to the method:
In Vitro Assay Procedure for Cathepsin K
To a 170 μl of enzyme-buffer mixture (enzyme: r cathepsin K, diluted to give approximate 30 F units/min, buffer: 100 mM sodium acetate, 5 mM EDTA, 20 mM L-cysteine, 0.01% Brij, pH 5.5) a 10 μL of inhibitor (dissolved in DMSO) was added. After 10 min of incubation at room temperature, a 20 μl of 2.7 mM substrate (N-CBZ-Phe-Arg-AMC, dissolved in DMSO) was added to initiate reaction. Reading is followed up for 10 min at the fluoroscan II plate reader (excitation at 380 nm emission at 460 nm).
as §1

For a further assay, the target named is cathepsin S (Homo sapiens, UniProt P25774). The assay is described as follows: In vitro assay for inhibition of cathepsin S. The following applies: r cathepsin S, substrate N-CBZ-Val-Val-Arg-AMC, pH 6.5, 10 min incubation at room temperature. Here is the method: In Vitro Assay Procedure for Cathepsin S
To a 170 μl of enzyme-buffer mixture (enzyme: r cathepsin S, diluted to give approximate 30 F units/min, buffer: 100 mM sodium phosphate, 1 mM EDTA, 5 mM DTT, 0.01% Brij, pH 6.5) a 10 μL of inhibitor (dissolved in DMSO) was added. After 10 min of incubation at room temperature, a 20 μl of 1.2 mM substrate (N-CBZ-Val-Val-Arg-AMC, dissolved in DMSO) was added to initiate reaction. Reading is followed up for 10 min at the fluoroscan II plate reader (excitation at 380 nm emission at 460 nm).
as §1

Chain of rat cathepsin B (P00787 80-333): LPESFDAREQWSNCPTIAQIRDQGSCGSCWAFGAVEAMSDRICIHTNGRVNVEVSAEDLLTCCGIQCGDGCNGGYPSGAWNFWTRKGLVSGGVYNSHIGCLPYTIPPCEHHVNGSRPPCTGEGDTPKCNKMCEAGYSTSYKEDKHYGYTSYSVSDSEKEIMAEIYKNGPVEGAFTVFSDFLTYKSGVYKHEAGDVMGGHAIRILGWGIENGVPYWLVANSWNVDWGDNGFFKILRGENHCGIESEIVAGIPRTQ
Chain of rat cathepsin L (P07154 114-334): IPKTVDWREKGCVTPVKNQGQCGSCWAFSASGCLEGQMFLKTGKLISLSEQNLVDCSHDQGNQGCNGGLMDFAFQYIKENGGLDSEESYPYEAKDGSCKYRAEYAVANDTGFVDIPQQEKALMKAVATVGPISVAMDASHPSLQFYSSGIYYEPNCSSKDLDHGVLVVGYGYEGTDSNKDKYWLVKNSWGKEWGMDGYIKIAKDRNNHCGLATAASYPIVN
Chain of cathepsin S (P25774 115-331, species assumed): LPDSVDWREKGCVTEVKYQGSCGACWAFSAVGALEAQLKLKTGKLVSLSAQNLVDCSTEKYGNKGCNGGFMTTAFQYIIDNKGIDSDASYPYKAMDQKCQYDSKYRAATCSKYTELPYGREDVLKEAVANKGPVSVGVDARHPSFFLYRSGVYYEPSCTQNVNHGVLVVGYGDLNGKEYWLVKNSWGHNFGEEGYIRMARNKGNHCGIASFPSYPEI

`COC(=O)[C@H](Cc1ccccc1)N/C=C(\NC(=O)[C@H](Cc1ccccc1)NC(=O)OCc1ccccc1)C(N)=O` [Example 30b, (2Z)-(2S-2-Benzyloxycarbonylamino-2-phenylmethyl-acetamido)-3-(1-carbomethoxy-2-phenethylamino)-acrylamide]: the IC50 (as a rule, the concentration needed to halve the response being measured) against rat cathepsin B was 1.83 µM; against rat cathepsin L it was 0.035 µM; on cathepsin K, 0.28 µM; on cathepsin S it was 1.21 µM.

Take `CC(=O)N/C=C(\NC(=O)[C@H](CC1CCCCC1)NC(=O)OCc1ccccc1)C(N)=O` [Example 19b, (2Z)-(2S-2-Benzyloxycarbonylamino-2-cyclohexylmethyl-acetamido)-3-acetamido-acrylamide]: the IC50 on rat cathepsin B was greater than 58 µM; against rat cathepsin L, no less than 58 µM; at cathepsin K it was greater than 58 µM; against cathepsin S, 5.23 µM.

Take `CCOC(=O)/C(=C\N1CCN(C)CC1)NC(=O)[C@H](CC(C)C)NC(=O)OCc1ccccc1` [Example 21, Ethyl-2-[2S-(benzyloxycarbonylamino)-2-isopropylmethyl-acetamido]-2-(4-methylpiperazino-1-methylenyl)-acetate]: the IC50 against rat cathepsin B came out at 8.21 µM; against rat cathepsin L, 0.21 µM; against cathepsin K, 0.087 µM; on cathepsin S, 0.3 µM.

Take `COC(=O)[C@H](Cc1ccccc1)N/C=C(/NC(=O)[C@H](Cc1ccccc1)NC(=O)OCc1ccccc1)C(N)=O` [Example 30a, (2E)-(2S-2-Benzyloxycarbonylamino-2-phenylmethyl-acetamido)-3-(1-carbomethoxy-2-phenethylamino)-acrylamide]: the IC50 against rat cathepsin B was 1.83 µM; against rat cathepsin L it was 0.048 µM; against cathepsin K, 0.28 µM; against cathepsin S, 0.57 µM.

For `CC(=O)N/C=C(\NC(=O)[C@H](CC(C)C)NC(=O)OCc1ccccc1)C(N)=O` [Example 10b, (2Z)-(2S-2-Benzyloxycarbonylamino-2-isopropylmethyl-acetamido)-3-acetamido-acrylamide], the IC50 against rat cathepsin B was 50.5 µM; against rat cathepsin L, greater than 64 µM; on cathepsin K, 10.7 µM; against cathepsin S, greater than 3.2 µM.

On to `CC(C)C[C@H](NC(=O)OCc1ccccc1)C(=O)N/C(=C/N1CCOCC1)C(=O)c1ccccc1` [Example 27, 2-[2S-(Benzyloxycarbonylamino)-2-isopropylmethyl-acetamido]-2-(morpholino-1-methylenyl)-acetophenone], for which the IC50 at rat cathepsin B was 32.3 µM; against rat cathepsin L it was 4.24 µM; against cathepsin K it was 0.14 µM; on cathepsin S, 52.2 µM.

Take `COC(=O)CN/C=C(\NC(=O)[C@H](Cc1ccccc1)NC(=O)OCc1ccccc1)C(N)=O` [Example 31b, (2Z)-(2S-2-Benzyloxycarbonylamino-2-phenylmethyl-acetamido)-3-(1-carbomethoxy-methylamino)-acrylamide]: the IC50 on rat cathepsin B is 0.43 µM; at rat cathepsin L, 0.017 µM; against cathepsin K, 0.09 µM; on cathepsin S, 0.43 µM.

On to `CCOC(=O)/C(=C\N1CCOCC1)NC(=O)[C@H](CC(C)C)NC(=O)OCc1ccccc1` [Example 23, Ethyl-2-[2S-(benzyloxycarbonylamino)-2-isopropylmethyl-acetamido]-2-(morpholino-1-methylenyl)-acetate], for which the IC50 on rat cathepsin B stood at 0.45 µM; against rat cathepsin L, 0.089 µM; against cathepsin K, 0.011 µM; on cathepsin S, 0.038 µM.

For the compound `O=C(CCc1ccccc1)N[C@@H](Cc1ccccc1)C(=O)N/C(=C/N1CCOCC1)C(=O)OC(c1ccccc1)c1ccccc1` [Example 25, Diphenylmethyl-2-[2S-(3-phenylpropionylamino)-2-phenylmethyl-acetamido]-2-(morpholino-1-methylenyl)-acetate], the IC50 came out at 0.06 µM against rat cathepsin B, 0.18 µM against rat cathepsin L, 0.065 µM at cathepsin K and 0.18 µM at cathepsin S.

`COc1ccc(C(=O)/C(=C\N2CCOCC2)NC(=O)[C@H](CC(C)C)NC(=O)OCc2ccccc2)cc1` [Example 28, 2-[2S-(Benzyloxycarbonylamino)-2-isopropylmethyl-acetamido]-2-(morpholino-1-methylenyl)-4′-methoxyacetophenone]: the IC50 at rat cathepsin B stood at 1.96 µM; at rat cathepsin L, 0.27 µM; at cathepsin K, 0.016 µM; at cathepsin S it was 1.3 µM.

Consider `CC(C)C[C@H](NC(=O)OCc1ccccc1)C(=O)N/C(=C/N1CCOCC1)C(=O)OC(C)(C)C` [Example 20, tert-Butyl-2-[2S-(benzyloxycarbonylamino)-2-isopropylmethyl-acetamido]-2-(morpholino-1-methylenyl)-acetate], for which the IC50 was 0.42 µM against rat cathepsin B, 0.08 µM against rat cathepsin L, 0.004 µM against cathepsin K and 0.38 µM against cathepsin S.

In the case of `CCOC(=O)/C(=C\N1CCOCC1)NC(=O)[C@H](Cc1ccccc1)NC(=O)OCc1ccccc1` [Example 22, Ethyl-2-[2S-(benzyloxycarbonylamino)-2-phenylmethyl-acetamido]-2-(morpholino-1-methylenyl)-acetate], the IC50 against rat cathepsin B worked out at 0.08 µM; against rat cathepsin L, 0.04 µM; on cathepsin K, 0.04 µM; against cathepsin S, 0.42 µM.

As to `CC(C)C[C@H](NC(=O)OCc1ccccc1)C(=O)NC(=CNCc1ccccc1)C(=O)NCc1ccccc1` [Example 16, 2-(2S-2-Benzyloxycarbonylamino-2-isopropylmethyl-acetamido)-3-benzylamino-N-benzyl-acrylamide], the IC50 at rat cathepsin B turned out to be 0.15 µM; on rat cathepsin L, 0.015 µM; against cathepsin K, 0.01 µM; at cathepsin S it was 0.026 µM.

For the compound `CCOC(=O)/C(=C\N1CCOCC1)NC(=O)[C@H](CC1CCCCC1)NC(=O)OCc1ccccc1` [Example 24, Ethyl-2-[2S-(benzyloxycarbonylamino)-2-cyclohexylmethyl-acetamido]-2-(morpholino-1-methylenyl)-acetate], the IC50 is 0.082 µM against rat cathepsin B, 0.082 µM against rat cathepsin L, 0.37 µM against cathepsin K and 0.0033 µM against cathepsin S.

For `CC(C)C[C@H](NC(=O)OCc1ccccc1)C(=O)N/C(=C/N1CCOCC1)C(=O)c1ccc(F)cc1` [Example 29, 2-[2S-(Benzyloxycarbonylamino)-2-isopropylmethyl-acetamido]-2-(morpholino-1-methylenyl)-4′-fluoroacetophenone], the 50% inhibitory concentration (IC50) against rat cathepsin B came out at 50.3 µM; against rat cathepsin L, 2.01 µM; at cathepsin K, 0.34 µM; against cathepsin S it was 50.3 µM.

In the case of `COc1ccc(C(=O)/C(=C\N2CCOCC2)NC(=O)[C@H](CC(C)C)NC(=O)c2cc3ccccc3s2)cc1` [Example 26, 2-[2S-(Benzothiophen-2-carbonylamino)-2-isopropylmethyl-acetamido]-2-(morpholino-1-methylenyl)-4′-methoxyacetophenone], the IC50 stood at 1.47 µM against rat cathepsin B, 0.075 µM against rat cathepsin L, 0.015 µM against cathepsin K and 0.99 µM on cathepsin S.

With `NC(=O)C(NC(=O)[C@H](Cc1ccccc1)NC(=O)OCc1ccccc1)C(O)O` (stereo partly drawn) [Example 13, 2-(2S-2-Benzyloxycarbonylamino-2-benzyl-acetamido)-3,3-dihydroxy-propionamide], the IC50 against rat cathepsin B was 1.4 µM; against rat cathepsin L, 0.004 µM; at cathepsin K, 0.4 µM; against cathepsin S, 0.004 µM.

Source of the values: patent US6635621B1, “Cysteine protease inhibitors” (Naeja Pharmaceutical Inc., priority 1999, dated 2003).
